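Briefly, cells in 96-well plates were exposed to five compound concentrations for 48 h, and endpoints were estimated by linear interpolation. The concentration for full growth arrest is given as TGI.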
How the values were obtained:
Test in all cases: NCI anticancer screen, dose series, 48 h
786-0 renal = system: 786-0 renal
A498 renal = system: A498 renal
A549 NSCLC = system: A549 NSCLC
ACHN renal = system: ACHN renal
BT-549 breast = system: BT-549 breast
CAKI-1 renal = system: CAKI-1 renal
CCRF-CEM leukemia = system: CCRF-CEM leukemia
COLO 205 colon = system: COLO 205 colon
DU-145 prostate = system: DU-145 prostate
EKVX NSCLC = system: EKVX NSCLC
HCC-2998 colon = system: HCC-2998 colon
HCT-116 colon = system: HCT-116 colon
HCT-15 colon = system: HCT-15 colon
HOP-62 NSCLC = system: HOP-62 NSCLC
HOP-92 NSCLC = system: HOP-92 NSCLC
HS 578T breast = system: HS 578T breast
HT29 colon = system: HT29 colon
IGROV1 ovarian = system: IGROV1 ovarian
K-562 leukemia = system: K-562 leukemia
KM12 colon = system: KM12 colon
LOX IMVI melanoma = system: LOX IMVI melanoma
M14 melanoma = system: M14 melanoma
MALME-3M melanoma = system: MALME-3M melanoma
MCF7 breast = system: MCF7 breast
MDA-MB-231 breast = system: MDA-MB-231 breast
MDA-MB-435 = system: MDA-MB-435
MDA-N = system: MDA-N
MOLT-4 leukemia = system: MOLT-4 leukemia
NCI-H226 lung = system: NCI-H226 lung
NCI-H23 lung = system: NCI-H23 lung
NCI-H460 lung = system: NCI-H460 lung
NCI-H522 lung = system: NCI-H522 lung
NCI/ADR-RES ovarian = system: NCI/ADR-RES ovarian
OVCAR-3 ovarian = system: OVCAR-3 ovarian
OVCAR-4 ovarian = system: OVCAR-4 ovarian
OVCAR-5 ovarian = system: OVCAR-5 ovarian
OVCAR-8 ovarian = system: OVCAR-8 ovarian
PC-3 prostate = system: PC-3 prostate
RPMI-8226 leukemia = system: RPMI-8226 leukemia
RXF 393 renal = system: RXF 393 renal
SF-268 CNS = system: SF-268 CNS
SF-295 CNS = system: SF-295 CNS
SF-539 CNS = system: SF-539 CNS
SK-MEL-2 melanoma = system: SK-MEL-2 melanoma
SK-MEL-28 melanoma = system: SK-MEL-28 melanoma
SK-MEL-5 melanoma = system: SK-MEL-5 melanoma
SK-OV-3 ovarian = system: SK-OV-3 ovarian
SN12C renal = system: SN12C renal
SNB-19 CNS = system: SNB-19 CNS
SNB-75 CNS = system: SNB-75 CNS
SR leukemia = system: SR leukemia
SW-620 colon = system: SW-620 colon
T-47D breast = system: T-47D breast
TK-10 renal = system: TK-10 renal
U251 CNS = system: U251 CNS
UACC-257 melanoma = system: UACC-257 melanoma
UACC-62 melanoma = system: UACC-62 melanoma
UO-31 renal = system: UO-31 renal

Measured: TGI

NC(N)=N/N=C\c1ccc(C2CCNCC2)cc1
> 100 µM: 786-0 renal | A498 renal | A549 NSCLC | ACHN renal | BT-549 breast | CAKI-1 renal | CCRF-CEM leukemia | COLO 205 colon | DU-145 prostate | EKVX NSCLC | HCC-2998 colon | HCT-116 colon | HCT-15 colon | HOP-62 NSCLC | HOP-92 NSCLC | HS 578T breast | HT29 colon | IGROV1 ovarian | K-562 leukemia | KM12 colon | LOX IMVI melanoma | M14 melanoma | MALME-3M melanoma | MCF7 breast | MDA-MB-231 breast | MDA-MB-435 | MDA-N | MOLT-4 leukemia | NCI-H226 lung | NCI-H23 lung | NCI-H460 lung | NCI-H522 lung | NCI/ADR-RES ovarian | OVCAR-3 ovarian | OVCAR-4 ovarian | OVCAR-5 ovarian | OVCAR-8 ovarian | PC-3 prostate | RPMI-8226 leukemia | RXF 393 renal | SF-268 CNS | SF-295 CNS | SF-539 CNS | SK-MEL-2 melanoma | SK-MEL-28 melanoma | SK-MEL-5 melanoma | SK-OV-3 ovarian | SN12C renal | SNB-19 CNS | SNB-75 CNS | SR leukemia | SW-620 colon | T-47D breast | TK-10 renal | U251 CNS | UACC-257 melanoma | UACC-62 melanoma | UO-31 renal

O=[N+]([O-])c1ccccc1N=Nc1c(O)[nH]c2ccc(S(=O)(=O)O)cc12
> 100 µM: 786-0 renal | A498 renal | A549 NSCLC | ACHN renal | BT-549 breast | CAKI-1 renal | COLO 205 colon | DU-145 prostate | EKVX NSCLC | HCT-116 colon | HCT-15 colon | HOP-62 NSCLC | HOP-92 NSCLC | HS 578T breast | HT29 colon | IGROV1 ovarian | K-562 leukemia | KM12 colon | LOX IMVI melanoma | M14 melanoma | MALME-3M melanoma | MCF7 breast | MDA-MB-231 breast | MDA-MB-435 | MDA-N | MOLT-4 leukemia | NCI-H226 lung | NCI-H23 lung | NCI-H460 lung | NCI-H522 lung | NCI/ADR-RES ovarian | OVCAR-3 ovarian | OVCAR-4 ovarian | OVCAR-5 ovarian | OVCAR-8 ovarian | PC-3 prostate | RPMI-8226 leukemia | RXF 393 renal | SF-268 CNS | SF-295 CNS | SF-539 CNS | SK-MEL-2 melanoma | SK-MEL-28 melanoma | SK-MEL-5 melanoma | SK-OV-3 ovarian | SN12C renal | SNB-19 CNS | SNB-75 CNS | SR leukemia | SW-620 colon | T-47D breast | TK-10 renal | U251 CNS | UACC-257 melanoma | UACC-62 melanoma | UO-31 renal

CCOC(=O)Nc1cc(NC(/C=N/NC(C)=O)C(=O)OCC)c(OC)cc1NC(C)=O (centres undefined)
> 100 µM: 786-0 renal | A498 renal | A549 NSCLC | ACHN renal | BT-549 breast | CAKI-1 renal | CCRF-CEM leukemia | COLO 205 colon | DU-145 prostate | EKVX NSCLC | HCC-2998 colon | HCT-116 colon | HCT-15 colon | HOP-62 NSCLC | HOP-92 NSCLC | HS 578T breast | HT29 colon | IGROV1 ovarian | K-562 leukemia | KM12 colon | M14 melanoma | MALME-3M melanoma | MCF7 breast | MDA-MB-231 breast | MDA-MB-435 | MDA-N | MOLT-4 leukemia | NCI-H226 lung | NCI-H23 lung | NCI-H460 lung | NCI/ADR-RES ovarian | OVCAR-3 ovarian | OVCAR-4 ovarian | OVCAR-5 ovarian | OVCAR-8 ovarian | PC-3 prostate | RPMI-8226 leukemia | RXF 393 renal | SF-268 CNS | SF-295 CNS | SK-MEL-2 melanoma | SK-MEL-28 melanoma | SK-MEL-5 melanoma | SK-OV-3 ovarian | SN12C renal | SNB-19 CNS | SNB-75 CNS | SR leukemia | SW-620 colon | T-47D breast | TK-10 renal | U251 CNS | UACC-257 melanoma | UACC-62 melanoma | UO-31 renal

Reference: PubChem BioAssay (NCI)
